Results taken from patent US7491793B2 (priority 2003, dated 2009).
“Also recorded” adds a separate entry of the source.

Experiments:
HIV-1 virion:cell fusion = settings: read-out: concentration giving 50% inhibition of HIV-1 virion:cell fusion; cited from earlier work
HIV-1 = settings: 100 mg/day, clinical trial, infected individuals; cited from earlier work
[1] = test system: SARS coronavirus strain Urbani; type: cell-based, SARS CoV strain Urbani or HK
[2] = test system: mouse hepatitis virus strain A59; type: cell-based, Mouse hepatitis virus (MHV) strain A59
Lassa fever = settings: only if administered early (up to six days) in the course of illness; cited from earlier work

In the case of enfuvirtide, the IC50 (HIV-1 virion:cell fusion) is given as 1.7 nM and the “reduction in plasma HIV-1 load” value (HIV-1) is given as “approximately 100 fold”.
With GVFVFNGTSWFITQRNFFS [SEQ ID NO:25] the “inhibition of plaque formation by SARS CoV” value (shortened to “inhibition … by SARS CoV”) [1] was “inhibited plaque formation”.
In the case of GYHLMSFPQAAPHGVVFLHVTY [SEQ ID NO:24], the “inhibition … by SARS CoV” value [1] is reported as “inhibited plaque formation”.
With “QDAIKKLNESYINLKEVGTYEMYVKW [SEQ ID NO:27, peptide from the carboxyl terminal helix of MHV S]” the “inhibition of plaque formation by MHV” value [2] was “some inhibition”.
In the case of `NC(=O)c1ncn([C@@H]2O[C@H](CO)[C@@H](O)[C@H]2O)n1` [ribavirin], the “efficacy in the treatment of Lassa fever” value (Lassa fever) is given as “effective”.
With “AACEVAKNLNESLIDLQELGKYEQYIKW [SEQ ID NO:29]” the “inhibition … by SARS CoV” value [1] was “some inhibition”.
With GNHILSLVQNAPYGLYFIHFSW [SEQ IDS NO:22] the “inhibition of plaque formation by MHV” value [2] was “can inhibit plaque formation by MHV; also recorded: more efficient”.
For MYKTPTLKYFGGFNFSQIL [SEQ ID NO:28], the “inhibition … by SARS CoV” value [1] was “some inhibition”.
With “GYFVQDDGEWKFTGSSYYY [SEQ ID NO:23, synthetic peptide from the MHV FIR]” the “inhibition of plaque formation by MHV” value [2] was “can inhibit plaque formation by MHV”.
In the case of MFPPWSAAAGVPFSLSVQY [SEQ ID NO:26], the “inhibition of plaque formation by MHV” value [2] is reported as “some inhibition”.
